Test results taken from publication PMC12062220, “Unveiling the role of Ndrg1 gene on the oxidative stress induction behind the anticancer potential of styrylquinazoline derivatives” (Scientific Reports, 2025).

Columns and labels:
Assay in all cases: ADP-Glo kinase assay (Promega), % inhibition at […]
Assay type in all cases: biochemical
HER2 = target: T1, HER2 (Homo sapiens, UniProt P04626)
T1 construct: gene ERBB2

[1] = target: insulin-like growth factor 1 receptor (IGF1R) (Homo sapiens, UniProt P08069)
EGFR = EGFR (Homo sapiens, UniProt P00533)
Chain of EGFR (P00533 25-1210): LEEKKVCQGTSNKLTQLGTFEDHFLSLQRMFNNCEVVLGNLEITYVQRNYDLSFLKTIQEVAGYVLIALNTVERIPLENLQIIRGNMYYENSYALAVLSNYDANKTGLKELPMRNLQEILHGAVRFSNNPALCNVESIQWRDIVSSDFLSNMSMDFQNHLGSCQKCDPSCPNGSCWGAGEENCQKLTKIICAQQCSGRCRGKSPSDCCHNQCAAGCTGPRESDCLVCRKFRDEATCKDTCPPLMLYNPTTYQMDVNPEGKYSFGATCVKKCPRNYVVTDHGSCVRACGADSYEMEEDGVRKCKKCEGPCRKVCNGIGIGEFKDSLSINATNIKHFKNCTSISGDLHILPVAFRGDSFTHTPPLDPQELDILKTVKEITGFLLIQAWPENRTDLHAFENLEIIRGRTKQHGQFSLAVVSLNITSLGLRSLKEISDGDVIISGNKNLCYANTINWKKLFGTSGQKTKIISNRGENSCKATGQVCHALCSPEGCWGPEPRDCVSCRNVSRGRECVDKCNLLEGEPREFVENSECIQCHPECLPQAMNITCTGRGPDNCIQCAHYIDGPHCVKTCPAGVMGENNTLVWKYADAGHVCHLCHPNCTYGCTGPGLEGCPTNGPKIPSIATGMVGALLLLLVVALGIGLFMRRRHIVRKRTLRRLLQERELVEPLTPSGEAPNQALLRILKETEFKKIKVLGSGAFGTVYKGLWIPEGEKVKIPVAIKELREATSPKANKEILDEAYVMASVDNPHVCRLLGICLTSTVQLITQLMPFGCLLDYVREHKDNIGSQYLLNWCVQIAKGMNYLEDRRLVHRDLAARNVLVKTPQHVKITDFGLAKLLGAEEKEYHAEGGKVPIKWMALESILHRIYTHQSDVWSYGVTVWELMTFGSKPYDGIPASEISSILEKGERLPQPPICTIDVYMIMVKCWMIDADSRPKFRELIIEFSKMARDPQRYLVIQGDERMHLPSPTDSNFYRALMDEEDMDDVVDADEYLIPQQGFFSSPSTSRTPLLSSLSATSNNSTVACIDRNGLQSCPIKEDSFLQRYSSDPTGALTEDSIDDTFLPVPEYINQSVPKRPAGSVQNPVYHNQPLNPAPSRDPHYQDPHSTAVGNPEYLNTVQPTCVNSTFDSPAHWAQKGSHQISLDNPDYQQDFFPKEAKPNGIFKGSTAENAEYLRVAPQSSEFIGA

Chain of insulin-like growth factor 1 receptor (IGF1R) (P08069 31-736): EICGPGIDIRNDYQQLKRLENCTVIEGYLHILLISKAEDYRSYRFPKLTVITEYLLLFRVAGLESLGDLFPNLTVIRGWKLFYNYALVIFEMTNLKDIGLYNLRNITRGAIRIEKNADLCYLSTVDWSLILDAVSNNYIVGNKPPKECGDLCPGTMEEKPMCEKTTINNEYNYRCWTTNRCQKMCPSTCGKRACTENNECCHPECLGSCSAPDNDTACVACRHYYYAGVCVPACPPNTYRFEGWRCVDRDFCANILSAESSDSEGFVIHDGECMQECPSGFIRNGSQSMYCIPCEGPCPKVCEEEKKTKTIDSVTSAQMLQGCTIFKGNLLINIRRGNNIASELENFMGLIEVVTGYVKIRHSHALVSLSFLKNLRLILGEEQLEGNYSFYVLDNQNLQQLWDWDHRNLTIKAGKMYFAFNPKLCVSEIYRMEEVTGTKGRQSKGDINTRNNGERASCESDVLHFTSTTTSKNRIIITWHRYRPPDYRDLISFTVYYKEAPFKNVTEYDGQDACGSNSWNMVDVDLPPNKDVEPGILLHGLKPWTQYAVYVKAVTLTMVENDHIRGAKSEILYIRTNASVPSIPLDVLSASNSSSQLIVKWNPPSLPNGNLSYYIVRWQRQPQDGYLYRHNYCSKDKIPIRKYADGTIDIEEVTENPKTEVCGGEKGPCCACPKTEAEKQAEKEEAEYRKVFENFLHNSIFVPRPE
Chain of insulin-like growth factor 1 receptor (IGF1R) (P08069 741-1367): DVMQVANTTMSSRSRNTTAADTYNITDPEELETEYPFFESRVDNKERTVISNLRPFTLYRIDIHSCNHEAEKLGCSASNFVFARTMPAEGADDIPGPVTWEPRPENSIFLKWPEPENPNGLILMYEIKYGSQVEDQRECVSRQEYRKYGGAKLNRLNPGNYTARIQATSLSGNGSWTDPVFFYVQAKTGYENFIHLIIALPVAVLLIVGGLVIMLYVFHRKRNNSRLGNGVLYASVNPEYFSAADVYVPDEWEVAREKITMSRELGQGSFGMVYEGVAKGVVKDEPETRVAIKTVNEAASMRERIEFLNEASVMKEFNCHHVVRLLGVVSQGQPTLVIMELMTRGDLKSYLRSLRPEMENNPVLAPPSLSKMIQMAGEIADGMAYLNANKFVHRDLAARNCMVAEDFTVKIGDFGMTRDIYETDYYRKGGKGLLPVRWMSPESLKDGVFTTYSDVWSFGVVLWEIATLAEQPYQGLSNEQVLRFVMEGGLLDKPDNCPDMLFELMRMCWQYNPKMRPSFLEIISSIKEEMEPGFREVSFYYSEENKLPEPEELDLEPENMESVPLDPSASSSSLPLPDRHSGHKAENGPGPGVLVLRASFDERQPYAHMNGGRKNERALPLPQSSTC
T1 sequence (P04626 23-1255): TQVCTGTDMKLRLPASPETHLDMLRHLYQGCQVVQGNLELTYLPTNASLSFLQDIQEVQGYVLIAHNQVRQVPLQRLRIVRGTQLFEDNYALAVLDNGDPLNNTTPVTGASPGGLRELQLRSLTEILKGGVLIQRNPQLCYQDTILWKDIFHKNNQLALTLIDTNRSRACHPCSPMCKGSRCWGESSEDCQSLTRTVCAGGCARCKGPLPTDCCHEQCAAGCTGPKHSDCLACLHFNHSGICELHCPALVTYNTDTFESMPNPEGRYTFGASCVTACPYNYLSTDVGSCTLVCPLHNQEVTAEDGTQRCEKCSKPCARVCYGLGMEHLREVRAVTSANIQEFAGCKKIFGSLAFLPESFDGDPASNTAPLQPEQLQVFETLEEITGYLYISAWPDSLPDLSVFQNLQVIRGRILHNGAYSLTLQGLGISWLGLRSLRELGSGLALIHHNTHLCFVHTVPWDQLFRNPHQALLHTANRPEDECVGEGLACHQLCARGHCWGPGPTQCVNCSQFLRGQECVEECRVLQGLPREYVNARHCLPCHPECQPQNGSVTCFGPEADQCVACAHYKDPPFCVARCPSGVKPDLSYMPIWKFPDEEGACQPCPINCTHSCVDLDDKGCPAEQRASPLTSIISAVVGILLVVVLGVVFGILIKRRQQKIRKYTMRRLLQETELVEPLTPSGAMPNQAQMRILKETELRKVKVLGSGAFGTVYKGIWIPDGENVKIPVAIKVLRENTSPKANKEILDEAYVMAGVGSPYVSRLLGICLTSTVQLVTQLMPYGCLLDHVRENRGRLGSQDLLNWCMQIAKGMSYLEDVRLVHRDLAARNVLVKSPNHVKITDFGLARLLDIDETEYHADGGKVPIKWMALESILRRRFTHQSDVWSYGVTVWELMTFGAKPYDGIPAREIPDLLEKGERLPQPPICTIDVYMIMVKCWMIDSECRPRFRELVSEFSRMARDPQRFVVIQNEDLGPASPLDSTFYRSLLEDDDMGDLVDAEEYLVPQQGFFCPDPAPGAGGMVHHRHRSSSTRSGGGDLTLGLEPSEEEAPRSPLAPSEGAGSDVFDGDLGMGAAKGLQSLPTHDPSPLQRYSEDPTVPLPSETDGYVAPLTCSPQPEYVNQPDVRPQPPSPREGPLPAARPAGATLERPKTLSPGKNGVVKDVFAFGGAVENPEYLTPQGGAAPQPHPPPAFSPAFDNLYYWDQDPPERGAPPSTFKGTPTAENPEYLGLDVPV

COc1ccccc1/C=C/c1nc(Nc2ccc3c(c2)OCO3)c2ccccc2n1 [IS20, N-(1,3-benzodioxol-5-yl)-2-[(E)-2-(2-methoxyphenyl)vinyl] quinazolin-4-amine]
inhibition at 1 µM (HER2): 25 to 30% | inhibition at 1 µM [1]: 40% | inhibition at 1 µM (EGFR): 25 to 30%
